Laboratory results as given in PubChem BioAssay AID1963974 (Molecular Pharmacology Branch, DTP, NCI, 2024).

System: 648629-189-R-J1-PDC spheroids with HUVEC/MSC, viability
Assay: Anticancer human tumor 648629-189-R-J1-PDC patient-derived bladder carcinoma cell line growth inhibition [PI3K]
Details: for IC50: curve of first compound; for viability, T/C: stronger effect = lower value
Method in brief: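 Three cell types, namely tumor cells, endothelial cells and mesenchymal stem cells, formed each spheroid. Combinations with four PI3K inhibitors were screened at clinically achievable concentrations decreasing by half-log, and spheroid viability was recorded.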

[1] = second compound 0.00316 µM, first compound 0.0316 µM
[2] = second compound 0.00316 µM, first compound 0.1 µM
[3] = second compound 0.00316 µM, first compound 0.316 µM
[4] = second compound 0.00316 µM, first compound 1 µM
[5] = second compound 0.00316 µM, first compound 3.16 µM
[6] = second compound 0.00316 µM, first compound 10 µM
[7] = second compound 0.01 µM, first compound 0.0316 µM
[8] = second compound 0.01 µM, first compound 0.1 µM
[9] = second compound 0.01 µM, first compound 0.316 µM
[10] = second compound 0.01 µM, first compound 1 µM
[11] = second compound 0.01 µM, first compound 3.16 µM
[12] = second compound 0.01 µM, first compound 10 µM
[13] = second compound 0.0316 µM, first compound 0.0316 µM
[14] = second compound 0.0316 µM, first compound 0.1 µM
[15] = second compound 0.0316 µM, first compound 0.316 µM
[16] = second compound 0.0316 µM, first compound 1 µM
[17] = second compound 0.0316 µM, first compound 3.16 µM
[18] = second compound 0.0316 µM, first compound 10 µM
[19] = second compound 0.1 µM, first compound 0.0316 µM
[20] = second compound 0.1 µM, first compound 0.1 µM
[21] = second compound 0.1 µM, first compound 0.316 µM
[22] = second compound 0.1 µM, first compound 1 µM
[23] = second compound 0.1 µM, first compound 3.16 µM
[24] = second compound 0.1 µM, first compound 10 µM
[25] = second compound 0.316 µM, first compound 0.0316 µM
[26] = second compound 0.316 µM, first compound 0.1 µM
[27] = second compound 0.316 µM, first compound 0.316 µM
[28] = second compound 0.316 µM, first compound 1 µM
[29] = second compound 0.316 µM, first compound 3.16 µM
[30] = second compound 0.316 µM, first compound 10 µM
[31] = second compound 1 µM, first compound 0.0316 µM
[32] = second compound 1 µM, first compound 0.1 µM
[33] = second compound 1 µM, first compound 0.316 µM
[34] = second compound 1 µM, first compound 1 µM
[35] = second compound 1 µM, first compound 3.16 µM
[36] = second compound 1 µM, first compound 10 µM
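Further: spheroids exposed to agents for seven days before reading.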
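Wherever viability, T/C is given: percent of vehicle control luminescence where 100% = DMSO treated spheroids.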

Compound `CCCS(=O)(=O)Nc1ccc(F)c(C(=O)c2c[nH]c3ncc(-c4ccc(Cl)cc4)cc23)c1F` + COc1c(OCCCN2CCOCC2)ccc2c3n(c(=NC(=O)c4cnc(N)nc4)nc12)CCN3 has an IC50 (second compound 0.00316 µM) of 5390 nM, an IC50 (second compound 0.01 µM) of 4980 nM and an IC50 (second compound 0.0316 µM) of 4210 nM. For the same compound, the IC50 (second compound 0.1 µM) was 1760 nM, the IC50 (second compound 0.316 µM) was < 31.6 nM and the IC50 (second compound 1 µM) was < 31.6 nM. For the same compound, the viability, T/C [1] was 117%, the viability, T/C [2] was 96.9% and the viability, T/C [3] was 92.4%. The viability, T/C [4] was 100%, the viability, T/C [5] was 92.7% and the viability, T/C [6] was 0.51%. It also gave a viability, T/C [7] of 89.8%, a viability, T/C [8] of 87.2% and a viability, T/C [9] of 100%. It also gave a viability, T/C [10] of 96.4%, a viability, T/C [11] of 82.5% and a viability, T/C [12] of 0.3%. The viability, T/C [13] was 85.8%, the viability, T/C [14] was 85.3% and the viability, T/C [15] was 87.8%. For the same compound, the viability, T/C [16] was 82.5%, the viability, T/C [17] was 66.4% and the viability, T/C [18] was 0.81%. The viability, T/C [19] was 55.4%, the viability, T/C [20] was 62.3% and the viability, T/C [21] was 54%. For the same compound, the viability, T/C [22] was 60.4%, the viability, T/C [23] was 42.1% and the viability, T/C [24] was 1.55%. For the same compound, the viability, T/C [25] was 22.4%, the viability, T/C [26] was 19.5% and the viability, T/C [27] was 18.3%. It also gave a viability, T/C [28] of 21.9%, a viability, T/C [29] of 16% and a viability, T/C [30] of 2.22%. It also gave a viability, T/C [31] of 4.16%, a viability, T/C [32] of 3.42% and a viability, T/C [33] of 3.84%. For the same compound, the viability, T/C [34] was 3.92%, the viability, T/C [35] was 3.43% and the viability, T/C [36] was 0.43%.

In the case of `C[C@@H](NC(=O)c1ncnc(N)c1Cl)c1ncc(C(=O)Nc2cc(C(F)(F)F)c(Cl)cn2)s1` + COc1c(OCCCN2CCOCC2)ccc2c3n(c(=NC(=O)c4cnc(N)nc4)nc12)CCN3, the IC50 (second compound 0.00316 µM) is reported as > 10000 nM, the IC50 (second compound 0.01 µM) is reported as > 10000 nM and the IC50 (second compound 0.0316 µM) is reported as > 10000 nM. The IC50 (second compound 0.1 µM) was > 10000 nM, the IC50 (second compound 0.316 µM) was < 31.6 nM and the IC50 (second compound 1 µM) was < 31.6 nM. For the same compound, the viability, T/C [1] was 105%, the viability, T/C [2] was 106% and the viability, T/C [3] was 103%. The viability, T/C [4] was 107%, the viability, T/C [5] was 112% and the viability, T/C [6] was 116%. For the same compound, the viability, T/C [7] was 99.9%, the viability, T/C [8] was 111% and the viability, T/C [9] was 90.4%. It also gave a viability, T/C [10] of 101%, a viability, T/C [11] of 128% and a viability, T/C [12] of 113%. The viability, T/C [13] was 95.8%, the viability, T/C [14] was 93.8% and the viability, T/C [15] was 109%. The viability, T/C [16] was 94.9%, the viability, T/C [17] was 104% and the viability, T/C [18] was 90%. For the same compound, the viability, T/C [19] was 66.6%, the viability, T/C [20] was 70.3% and the viability, T/C [21] was 60.8%. For the same compound, the viability, T/C [22] was 65.2%, the viability, T/C [23] was 67.3% and the viability, T/C [24] was 68.9%. For the same compound, the viability, T/C [25] was 23.6%, the viability, T/C [26] was 21.7% and the viability, T/C [27] was 19.4%. For the same compound, the viability, T/C [28] was 27.9%, the viability, T/C [29] was 26.4% and the viability, T/C [30] was 25.8%. The viability, T/C [31] was 4.31%, the viability, T/C [32] was 4.06% and the viability, T/C [33] was 3.53%. The viability, T/C [34] was 4.37%, the viability, T/C [35] was 4.83% and the viability, T/C [36] was 6.55%.

For `Cn1ncnc1[C@H]1c2n[nH]c(=O)c3cc(F)cc(c23)N[C@@H]1c1ccc(F)cc1` + COc1c(OCCCN2CCOCC2)ccc2c3n(c(=NC(=O)c4cnc(N)nc4)nc12)CCN3, the IC50 (second compound 0.00316 µM) was > 100 nM, the IC50 (second compound 0.01 µM) was > 100 nM and the IC50 (second compound 0.0316 µM) was > 100 nM. For the same compound, the IC50 (second compound 0.1 µM) was 32.2 nM, the IC50 (second compound 0.316 µM) was < 0.316 nM and the IC50 (second compound 1 µM) was < 0.316 nM. It also gave a viability, T/C (second compound 0.00316 µM, first compound 0.000316 µM) of 100%, a viability, T/C (second compound 0.00316 µM, first compound 0.001 µM) of 92.2% and a viability, T/C (second compound 0.00316 µM, first compound 0.00316 µM) of 106%. It also gave a viability, T/C (second compound 0.00316 µM, first compound 0.01 µM) of 88.5%, a viability, T/C [1] of 83.4% and a viability, T/C [2] of 59.3%. It also gave a viability, T/C (second compound 0.01 µM, first compound 0.000316 µM) of 92.3%, a viability, T/C (second compound 0.01 µM, first compound 0.001 µM) of 92.1% and a viability, T/C (second compound 0.01 µM, first compound 0.00316 µM) of 88.7%. For the same compound, the viability, T/C (second compound 0.01 µM, first compound 0.01 µM) was 93.6%, the viability, T/C [7] was 86.5% and the viability, T/C [8] was 60.6%. It also gave a viability, T/C (second compound 0.0316 µM, first compound 0.000316 µM) of 88.5%, a viability, T/C (second compound 0.0316 µM, first compound 0.001 µM) of 93.3% and a viability, T/C (second compound 0.0316 µM, first compound 0.00316 µM) of 85.4%. It also gave a viability, T/C (second compound 0.0316 µM, first compound 0.01 µM) of 73.5%, a viability, T/C [13] of 65.6% and a viability, T/C [14] of 55.3%. For the same compound, the viability, T/C (second compound 0.1 µM, first compound 0.000316 µM) was 66.7%, the viability, T/C (second compound 0.1 µM, first compound 0.001 µM) was 60.7% and the viability, T/C (second compound 0.1 µM, first compound 0.00316 µM) was 57.5%. The viability, T/C (second compound 0.1 µM, first compound 0.01 µM) was 57.2%, the viability, T/C [19] was 51.8% and the viability, T/C [20] was 41%. The viability, T/C (second compound 0.316 µM, first compound 0.000316 µM) was 20.3%, the viability, T/C (second compound 0.316 µM, first compound 0.001 µM) was 19.2% and the viability, T/C (second compound 0.316 µM, first compound 0.00316 µM) was 18.7%. For the same compound, the viability, T/C (second compound 0.316 µM, first compound 0.01 µM) was 16.4%, the viability, T/C [25] was 20% and the viability, T/C [26] was 15.4%. The viability, T/C (second compound 1 µM, first compound 0.000316 µM) was 4.4%, the viability, T/C (second compound 1 µM, first compound 0.001 µM) was 3.64% and the viability, T/C (second compound 1 µM, first compound 0.00316 µM) was 3.49%. For the same compound, the viability, T/C (second compound 1 µM, first compound 0.01 µM) was 3.59%, the viability, T/C [31] was 3.84% and the viability, T/C [32] was 2.43%.
